{"source": "patent US11492354B2", "about": "“Indazole compounds and uses thereof” (Incyte Corporation, priority 2018, dated 2022)", "target": "HPK1 (Homo sapiens (Human), UniProt Q92918)", "sequence (Q92918 1-346 limits assumed)": "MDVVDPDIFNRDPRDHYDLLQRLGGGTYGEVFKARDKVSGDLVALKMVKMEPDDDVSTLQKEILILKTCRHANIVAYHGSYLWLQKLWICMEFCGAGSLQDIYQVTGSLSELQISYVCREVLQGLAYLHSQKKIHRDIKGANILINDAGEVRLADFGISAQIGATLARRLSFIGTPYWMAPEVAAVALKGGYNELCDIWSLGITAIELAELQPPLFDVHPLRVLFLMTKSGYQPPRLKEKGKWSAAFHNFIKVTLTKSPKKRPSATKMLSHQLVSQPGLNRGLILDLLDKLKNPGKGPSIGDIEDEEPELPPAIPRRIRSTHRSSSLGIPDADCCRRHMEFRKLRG", "assay": "HPK1 Kinase Binding Assay", "conditions": "LanthaScreen tracer 222 binding, active HPK1, 1 h at 25° C.", "procedure": "A stock solution of 1 mM test compound was prepared in DMSO. The compound plate was prepared by 3-fold and 11-point serial dilutions. 0.1 μL of the compound in DMSO was transferred from the compound plate to the white 384 well polystyrene plates. The assay buffer contained 50 mM HEPES, pH 7.5, 0.01% Tween-20, 5 mM MgCl2, 0.01% BSA, and 5 mM DTT. 5 μL of 4 nM active HPK1 (SignalChem M23-11G) prepared in the buffer was added to the plate. The enzyme concentration given was based on the given stock concentration reported by the vender. […] After one hour incubation at 25° C., the plates were read on a PHERAstar FS plate reader (BMG Labtech). Ki values were determined.", "note": "pKi: −log10 of the molar value."}
{"smiles": "COc1cccc(F)c1-c1nccc(C(=O)Nc2cc(F)c3nn(C)cc3c2N2CCC[C@@H]2CN)n1", "note": "(single isomer, unassigned; peak 1) [10, Peak 1]", "values": [{"measurement": "pKi", "result": "> 7.00"}]}
